What was measured:
Format in all cases: in vivo
[1] = test system: barnyardgrass (Echinochloa crus-galli); assay: Test A preemergence, barnyardgrass; settings: Preemergence; for Barnyardgrass plant response rating: 125 g ai/ha, visual injury on 0 to 100 scale (0 no effect, 100 complete control), approximately 10 days; for Plant response rating, Barnyardgrass: 0 to 100 scale (0 no effect, 100 complete control)
In short: (§1)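 Test chemicals, formulated in a non-phytotoxic solvent mixture with surfactant, were sprayed postemergence on plants 2 to 10 cm tall at the one- to two-leaf stage. Preemergence treatment was a directed soil spray onto freshly seeded pots. Both used a loam soil and sand blend.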

kochia (Bassia scoparia) [2] = assay: Test A preemergence, kochia; settings: Preemergence; for Kochia plant response rating: 125 g ai/ha, visual injury on 0 to 100 scale (0 no effect, 100 complete control), approximately 10 days; for Plant response rating, Kochia: 0 to 100 scale (0 no effect, 100 complete control)
In short: as §1

[3] = test system: ragweed (common ragweed, Ambrosia artemisiifolia); assay: Test A preemergence, ragweed; settings: Preemergence; for Ragweed plant response rating: 125 g ai/ha, visual injury on 0 to 100 scale (0 no effect, 100 complete control), approximately 10 days; for Plant response rating, Ragweed: 0 to 100 scale (0 no effect, 100 complete control)
In short: as §1

[4] = test system: Ryegrass, Italian (Italian ryegrass, Lolium multiflorum); assay: Test A preemergence, Ryegrass, Italian; settings: Preemergence; for Ryegrass, Italian plant response rating: 125 g ai/ha, visual injury on 0 to 100 scale (0 no effect, 100 complete control), approximately 10 days; for Plant response rating, Ryegrass, Italian: 0 to 100 scale (0 no effect, 100 complete control)
In short: as §1

[5] = test system: Foxtail, Giant (giant foxtail, Setaria faberi); assay: Test A preemergence, Foxtail, Giant; settings: Preemergence; for Foxtail, Giant plant response rating: 125 g ai/ha, visual injury on 0 to 100 scale (0 no effect, 100 complete control), approximately 10 days; for Plant response rating, Foxtail, Giant: 0 to 100 scale (0 no effect, 100 complete control)
In short: as §1

[6] = test system: pigweed (Amaranthus retroflexus); assay: Test A preemergence, pigweed; settings: for Pigweed plant response rating: 125 g ai/ha, visual injury on 0 to 100 scale (0 no effect, 100 complete control), approximately 10 days; for Plant response rating, Pigweed: 0 to 100 scale (0 no effect, 100 complete control)
In short: (§2)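 Preemergence: pigweed seeds in loam soil–sand blend received a directed soil spray of test chemicals in a non-phytotoxic solvent with surfactant. Postemergence: barnyardgrass, wheat and galium in pots of the same soil, 2 to 10 cm tall at one- to two-leaf stage, sprayed with the same formulation.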

[7] = test system: barnyardgrass (Echinochloa crus-galli); assay: Test A postemergence, barnyardgrass; settings: Postemergence, 0 to 100 scale (0 no effect, 100 complete control); for Barnyardgrass plant response rating: 500 g ai/ha, visual injury vs untreated controls after approx. 10 days
In short: as §2

kochia (Bassia scoparia) [8] = assay: Test A postemergence, kochia; settings: Postemergence, 0 to 100 scale (0 no effect, 100 complete control); for Kochia plant response rating: 500 g ai/ha, visual injury vs untreated controls after approx. 10 days
In short: as §1

[9] = test system: ragweed (common ragweed, Ambrosia artemisiifolia); assay: Test A postemergence, ragweed; settings: Postemergence, 0 to 100 scale (0 no effect, 100 complete control); for Ragweed plant response rating: 500 g ai/ha, visual injury vs untreated controls after approx. 10 days
In short: as §1

[10] = test system: Ryegrass, Italian (Italian ryegrass, Lolium multiflorum); assay: Test A postemergence, Ryegrass, Italian; settings: Postemergence, 0 to 100 scale (0 no effect, 100 complete control); for Ryegrass, Italian plant response rating: 500 g ai/ha, visual injury vs untreated controls after approx. 10 days
In short: as §1

[11] = test system: Foxtail, Giant (giant foxtail, Setaria faberi); assay: Test A postemergence, Foxtail, Giant; settings: Postemergence, 0 to 100 scale (0 no effect, 100 complete control); for Foxtail, Giant plant response rating: 500 g ai/ha, visual injury vs untreated controls after approx. 10 days
In short: as §1

[12] = test system: pigweed (Amaranthus retroflexus); assay: Test A postemergence, pigweed; settings: Postemergence, 0 to 100 scale (0 no effect, 100 complete control); for Pigweed plant response rating: 500 g ai/ha, visual injury vs untreated controls after approx. 10 days
In short: as §1

[13] = test system: wheat (Triticum aestivum); assay: Test A postemergence, wheat; settings: Postemergence, 0 to 100 scale (0 no effect, 100 complete control); for Wheat plant response rating: 500 g ai/ha, visual injury vs untreated controls after approx. 10 days
In short: as §2

corn (Zea mays) = assay: Test A postemergence, corn; settings: Postemergence, 0 to 100 scale (0 no effect, 100 complete control); for Corn plant response rating: 500 g ai/ha, visual injury vs untreated controls after approx. 10 days
In short: as §1

[14] = test system: blackgrass (Alopecurus myosuroides); assay: Test A postemergence, blackgrass; settings: Postemergence, 0 to 100 scale (0 no effect, 100 complete control); for Blackgrass plant response rating: 500 g ai/ha, visual injury vs untreated controls after approx. 10 days
In short: as §1

[15] = test system: galium (catchweed bedstraw, Galium aparine); assay: Test A postemergence, galium; settings: Postemergence, 0 to 100 scale (0 no effect, 100 complete control); for Galium plant response rating: 500 g ai/ha, visual injury vs untreated controls after approx. 10 days
In short: as §2

[16] = 125 g ai/ha, visual injury approx. 10 days
[17] = 31 g ai/ha, visual injury, approx. 10 days

With Cc1cc(C)c(-n2ncccc2=O)cc1NS(=O)(=O)C(F)(F)F [Compound 83] the “Barnyardgrass plant response rating” value [1] was 70, the “Plant response rating, Barnyardgrass” value ([1]; 500 g ai/ha) was 80 and the “Kochia plant response rating” value (kochia (Bassia scoparia) [2]) was 60. The “Plant response rating, Kochia” value (kochia (Bassia scoparia) [2]; 500 g ai/ha) was 70, the “Ragweed plant response rating” value [3] was 0 and the “Plant response rating, Ragweed” value ([3]; 500 g ai/ha) was 20. The “Ryegrass, Italian plant response rating” value [4] was 30, the “Plant response rating, Ryegrass, Italian” value ([4]; 500 g ai/ha) was 50 and the “Foxtail, Giant plant response rating” value [5] was 10. For the same compound, the “Plant response rating, Foxtail, Giant” value ([5]; 500 g ai/ha) was 80, the “Pigweed plant response rating” value [6] was 50 and the “Plant response rating, Pigweed” value ([6]; 500 g ai/ha) was 90. For the same compound, the “Plant response rating, Barnyardgrass” value [7, 16] was 20, the “Barnyardgrass plant response rating” value [7] was 70 and the “Plant response rating, Kochia” value (kochia (Bassia scoparia) [8]; [16]) was 0. For the same compound, the “Kochia plant response rating” value (kochia (Bassia scoparia) [8]) was 20, the “Plant response rating, Ragweed” value [9, 16] was 10 and the “Ragweed plant response rating” value [9] was 60. The “Plant response rating, Ryegrass, Italian” value [10, 16] was 0, the “Ryegrass, Italian plant response rating” value [10] was 0 and the “Plant response rating, Foxtail, Giant” value [11, 16] was 0. For the same compound, the “Foxtail, Giant plant response rating” value [11] was 40, the “Plant response rating, Pigweed” value [12, 16] was 40 and the “Pigweed plant response rating” value [12] was 50. For the same compound, the “Plant response rating, Wheat” value [13, 16] was 0, the “Wheat plant response rating” value [13] was 0 and the “Plant response rating, Corn” value (corn (Zea mays); [16]) was 0. For the same compound, the “Corn plant response rating” value (corn (Zea mays)) was 30, the “Plant response rating, Blackgrass” value [14, 16] was 0 and the “Blackgrass plant response rating” value [14] was 0. The “Plant response rating, Galium” value [15, 16] was 60 and the “Galium plant response rating” value [15] was 80.

Cc1cc(C)c(-n2nccc(C)c2=O)cc1NS(=O)(=O)C(F)(F)F [Compound 84] was tested, and the “Plant response rating, Barnyardgrass” value ([1]; 500 g ai/ha) was 80, the “Plant response rating, Kochia” value (kochia (Bassia scoparia) [2]; 500 g ai/ha) was 70 and the “Plant response rating, Ragweed” value ([3]; 500 g ai/ha) was 0. For the same compound, the “Plant response rating, Ryegrass, Italian” value ([4]; 500 g ai/ha) was 90, the “Plant response rating, Foxtail, Giant” value ([5]; 500 g ai/ha) was 90 and the “Plant response rating, Pigweed” value ([6]; 500 g ai/ha) was 70. For the same compound, the “Barnyardgrass plant response rating” value [7] was 80, the “Kochia plant response rating” value (kochia (Bassia scoparia) [8]) was 0 and the “Ragweed plant response rating” value [9] was 40. For the same compound, the “Ryegrass, Italian plant response rating” value [10] was 50, the “Foxtail, Giant plant response rating” value [11] was 50 and the “Pigweed plant response rating” value [12] was 30. For the same compound, the “Wheat plant response rating” value [13] was 70, the “Corn plant response rating” value (corn (Zea mays)) was 60 and the “Blackgrass plant response rating” value [14] was 20. The “Galium plant response rating” value [15] was 50.

Cc1ccc(=O)n(-c2cc(NS(=O)(=O)C(F)(F)F)c(C)cc2C)n1 [Compound 85] was tested, and the “Barnyardgrass plant response rating” value [1] was 70, the “Plant response rating, Barnyardgrass” value ([1]; 500 g ai/ha) was 70 and the “Kochia plant response rating” value (kochia (Bassia scoparia) [2]) was 60. For the same compound, the “Plant response rating, Kochia” value (kochia (Bassia scoparia) [2]; 500 g ai/ha) was 70, the “Ragweed plant response rating” value [3] was 0 and the “Plant response rating, Ragweed” value ([3]; 500 g ai/ha) was 0. The “Ryegrass, Italian plant response rating” value [4] was 0, the “Plant response rating, Ryegrass, Italian” value ([4]; 500 g ai/ha) was 30 and the “Foxtail, Giant plant response rating” value [5] was 10. For the same compound, the “Plant response rating, Foxtail, Giant” value ([5]; 500 g ai/ha) was 90, the “Pigweed plant response rating” value [6] was 100 and the “Plant response rating, Pigweed” value ([6]; 500 g ai/ha) was 100. For the same compound, the “Plant response rating, Barnyardgrass” value [7, 16] was 30, the “Barnyardgrass plant response rating” value [7] was 20 and the “Plant response rating, Kochia” value (kochia (Bassia scoparia) [8]; [16]) was 0. The “Kochia plant response rating” value (kochia (Bassia scoparia) [8]) was 0, the “Plant response rating, Ragweed” value [9, 16] was 20 and the “Ragweed plant response rating” value [9] was 30. The “Plant response rating, Ryegrass, Italian” value [10, 16] was 40, the “Ryegrass, Italian plant response rating” value [10] was 30 and the “Plant response rating, Foxtail, Giant” value [11, 16] was 0. For the same compound, the “Foxtail, Giant plant response rating” value [11] was 0, the “Plant response rating, Pigweed” value [12, 16] was 20 and the “Pigweed plant response rating” value [12] was 40. The “Plant response rating, Wheat” value [13, 16] was 0, the “Wheat plant response rating” value [13] was 0 and the “Plant response rating, Corn” value (corn (Zea mays); [16]) was 0. The “Corn plant response rating” value (corn (Zea mays)) was 0, the “Plant response rating, Blackgrass” value [14, 16] was 0 and the “Blackgrass plant response rating” value [14] was 0. For the same compound, the “Plant response rating, Galium” value [15, 16] was 60 and the “Galium plant response rating” value [15] was 0.

With COC1CCCN(C(=O)c2cc(N(C(=O)C(C)C)S(=O)(=O)C(F)(F)F)c(C)cc2C)C1 (stereo not shown) [Compound 91] the “Plant response rating, Barnyardgrass” value [1, 17] was 0, the “Barnyardgrass plant response rating” value [1] was 90 and the “Plant response rating, Kochia” value (kochia (Bassia scoparia) [2]; [17]) was 0. The “Kochia plant response rating” value (kochia (Bassia scoparia) [2]) was 60, the “Plant response rating, Ragweed” value [3, 17] was 0 and the “Ragweed plant response rating” value [3] was 20. The “Plant response rating, Ryegrass, Italian” value [4, 17] was 30, the “Ryegrass, Italian plant response rating” value [4] was 50 and the “Plant response rating, Foxtail, Giant” value [5, 17] was 20. The “Foxtail, Giant plant response rating” value [5] was 100, the “Plant response rating, Pigweed” value [6, 17] was 60 and the “Pigweed plant response rating” value [6] was 100. For the same compound, the “Plant response rating, Barnyardgrass” value ([7]; 31 g ai/ha) was 0, the “Plant response rating, Barnyardgrass” value [7, 16] was 0 and the “Plant response rating, Kochia” value (kochia (Bassia scoparia) [8]; 31 g ai/ha) was 10. The “Plant response rating, Kochia” value (kochia (Bassia scoparia) [8]; [16]) was 10, the “Plant response rating, Ragweed” value ([9]; 31 g ai/ha) was 0 and the “Plant response rating, Ragweed” value [9, 16] was 40. For the same compound, the “Plant response rating, Ryegrass, Italian” value ([10]; 31 g ai/ha) was 0, the “Plant response rating, Ryegrass, Italian” value [10, 16] was 10 and the “Plant response rating, Foxtail, Giant” value ([11]; 31 g ai/ha) was 0. The “Plant response rating, Foxtail, Giant” value [11, 16] was 10, the “Plant response rating, Pigweed” value ([12]; 31 g ai/ha) was 0 and the “Plant response rating, Pigweed” value [12, 16] was 40. For the same compound, the “Plant response rating, Wheat” value ([13]; 31 g ai/ha) was 10, the “Plant response rating, Wheat” value [13, 16] was 60 and the “Plant response rating, Corn” value (corn (Zea mays); 31 g ai/ha) was 0. For the same compound, the “Plant response rating, Corn” value (corn (Zea mays); [16]) was 0, the “Plant response rating, Blackgrass” value ([14]; 31 g ai/ha) was 0 and the “Plant response rating, Blackgrass” value [14, 16] was 0. For the same compound, the “Plant response rating, Galium” value ([15]; 31 g ai/ha) was 70 and the “Plant response rating, Galium” value [15, 16] was 70.

Source: patent US20230278972A1, “SUBSTITUTED HALOALKYL SULFONANILIDE HERBICIDES” (FMC Corporation, priority 2020, published 2023)
